The values that follow come from patent publication US5733924A, “DC 107 derivatives and treatment methods” (Kyowa Hakko Kogyo Co., Ltd., priority 1995, dated 1998).

The subject of test [1] is Bacillus subtilis No. 10707. The test is described as follows: Antibacterial activity, agar dilution method (MIC). The class given is cell-based. The source says:
(§1) The antibacterial activity as determined by the agar dilution method using a medium prepared by dissolving 3 g of Bacto-Tryptone (a product of Difco Laboratories), 3 g of a meat extract, 1 g of an yeast extract, 1 g of glucose and 16 g of agar in one liter of water (pH 7).
BS: Bacillus subtilis No. 10707
For orientation: In agar dilution, organisms are placed on agar that contains the substance at set levels.

Test [2] relates to P388 Leukemia. The test is described as follows: Antitumor activity against P388 leukemia in mice (increased life span). The class given is in vivo, CDF1 mice. The following applies: Mus musculus, P388, ip, 720 h, read-out: ILS (increased life span). The procedure:
Ascites were collected from the abdominal cavity of P388 ascites tumor-bearing cancer mice (DBA/2) on the 7th day after transplantation. A number of P388 cells in the ascites was counted, and a tumor cell floating liquid of 5×10^6 cells/ml was prepared using a physiological saline solution. Then, 0.2 ml of the solution containing 1×10^6 cells was transplanted into the abdominal cavity of CDF1 mice having a body weight of from 20 to 25 g.
The effect of the test compound was determined in terms of the ratio of average survival days of the group administered with the test compound to average survival days of the control group (non-medicated group) (i.e., an increased life span, ILS%).

The subject of test [3] is Escherichia coli ATCC 26. The test is described as follows: Antibacterial activity, agar dilution method (MIC). The class given is cell-based.
Description: as §1
EC: Escherichia coli ATCC 26

Test [4] relates to Staphylococcus aureus ATCC 6538P. Description: Antibacterial activity, agar dilution method (MIC). The class given is cell-based. The following applies: ATCC6538P.
Description: as §1
SA: Staphylococcus aureus ATCC 6538P

In test [5] the test system is Klebsiella pneumoniae ATCC 10031. The test is described as follows: Antibacterial activity, agar dilution method (MIC). The class given is cell-based.
Description: as §1
KP: Klebsiella pneumoniae ATCC 10031

Test [6] relates to Enterococcus faecium ATCC 10541. Description: Antibacterial activity, agar dilution method (MIC). The class given is cell-based.
Description: as §1
EF: Enterococcus faecium ATCC 10541

Setting [7] is: Bacillus subtilis, NO.10707, pH 7, read-out: MIC (minimum growth inhibitory concentration), BS: Bacillus subtilis No. 10707.
Where [8] appears, read: Staphylococcus aureus, pH 7, read-out: MIC (minimum growth inhibitory concentration).
[9] abbreviates: Klebsiella pneumoniae, ATCC10031, pH 7, read-out: MIC (minimum growth inhibitory concentration).
[10] abbreviates: Enterococcus faecium, ATCC10541, pH 7, read-out: MIC (minimum growth inhibitory concentration), EF: Enterococcus faecium ATCC 10541.
Where [11] appears, read: BS: Bacillus subtilis No. 10707, pH 7, read-out: MIC (minimum growth inhibitory concentration).
The mark [12] stands for this setting: 2.0 mg/kg, single i.p. 24 hours after transplantation, CDF1 mice, 30 days observation.
The mark [13] stands for this setting: ATCC26, EC: Escherichia coli ATCC 26, pH 7, read-out: MIC (minimum growth inhibitory concentration).
Setting [14] is: SA: Staphylococcus aureus ATCC 6538P, agar dilution, pH 7, read-out: MIC (minimum growth inhibitory concentration).
[15] abbreviates: ATCC10031, KP: Klebsiella pneumoniae ATCC 10031, agar dilution, pH 7, read-out: MIC (minimum growth inhibitory concentration).
Setting [16] is: ATCC10541, EF: Enterococcus faecium ATCC 10541, pH 7, read-out: MIC (minimum growth inhibitory concentration).

Each structure is given as a SMILES string. ≈ marks a conversion by molar mass, not a printed value. Read-outs that look alike come from different tables or passages of the source.

What is called ILS is how much longer treated animals lived than controls. `C/C1=C\C(OC2CCCCO2)C(=O)/C=C/C=C\c2csc(n2)C(C)N2C(=O)CC(C(C)(O)C(=O)SCc3oc(=O)oc3C)(CC1)[S+]2[O-]` (single isomer, unassigned) [Compound 63]: the MIC came to 0.081 µg/mL (≈ 0.115 µM) in test [1] (setting [7]), 0.65 µg/mL (≈ 0.92 µM) in test [4] (setting [8]), 5.2 µg/mL (≈ 7.36 µM) in test [5] (setting [9]) and 0.65 µg/mL (≈ 0.92 µM) in test [6] (setting [10]). Also, in test [2], the ILS at 2 mg/kg is 48%. In addition, the “MIC (minimum growth inhibitory concentration)” value in test [3] (EC: Escherichia coli ATCC 26, pH 7) came out at 21 µg/mL (≈ 29.7 µM).

`CCC(=O)OC1/C=C(\C)CCC2(CC(=O)NC(C)c3nc(cs3)/C=C\C=C\C1=O)[S+]([O-])SC(=O)C2(C)O` (stereo not shown) [Compound 2]: the MIC is 0.33 µg/mL (≈ 0.582 µM) in test [1] (setting [11]); 1.3 µg/mL (≈ 2.29 µM) in test [3] (setting [13]); 0.041 µg/mL (≈ 0.0723 µM) in test [4] (setting [14]); 0.65 µg/mL (≈ 1.15 µM) in test [5] (setting [15]); 0.081 µg/mL (≈ 0.143 µM) in test [6] (setting [16]). Further, the ILS at 2 mg/kg in test [2] (setting [12]) turned out to be 42%.

As for `C/C1=C\C(OC(=O)C2CCCCC2)C(=O)/C=C/C=C\c2csc(n2)C(C)NC(=O)CC2(CC1)[S+]([O-])SC(=O)C2(C)O` (stereo not shown) [Compound 6], the MIC is 0.028 µg/mL (≈ 0.0451 µM) in test [1] (setting [11]); 3.7 µg/mL (≈ 5.96 µM) in test [3] (setting [13]); 0.91 µg/mL (≈ 1.47 µM) in test [4] (setting [14]); 7.3 µg/mL (≈ 11.8 µM) in test [5] (setting [15]); 0.91 µg/mL (≈ 1.47 µM) in test [6] (setting [16]). The ILS at 4 mg/kg in test [2] came out at 49%.

Take `C/C1=C\C(OC(=O)c2cnc3ccccc3n2)C(=O)/C=C/C=C\c2csc(n2)C(C)N2C(=O)CC(C(C)(O)C(=O)SCc3oc(=O)oc3C)(CC1)[S+]2[O-]` (stereo not shown) [Compound 52]: the MIC in test [1] (setting [7]) is 2.9 µg/mL (≈ 3.72 µM); in test [3] (Escherichia coli, ATCC26, pH 7, read-out: MIC (minimum growth inhibitory concentration), EC: Escherichia coli ATCC 26) it was 92 µg/mL (≈ 118 µM); in test [4] (setting [8]), 0.72 µg/mL (≈ 0.924 µM); in test [5] (setting [9]), 23 µg/mL (≈ 29.5 µM); in test [6] (setting [10]), 0.72 µg/mL (≈ 0.924 µM).

`COCOC1/C=C(\C)CCC2(C(C)(O)C(=O)SCc3oc(=O)oc3C)CC(=O)N(C(C)c3nc(cs3)/C=C\C=C\C1=O)[S+]2[O-]` (stereo not shown) [Compound 58]: the MIC in test [1] (setting [11]) was 0.72 µg/mL (≈ 1.08 µM); in test [3] (setting [13]), 46 µg/mL (≈ 69 µM); in test [4] (setting [14]) it was 0.72 µg/mL (≈ 1.08 µM); in test [5] (setting [15]), 2.9 µg/mL (≈ 4.35 µM); in test [6] (setting [16]) it was 0.72 µg/mL (≈ 1.08 µM).

Regarding `CCOCOC1/C=C(\C)CCC2(C(C)(O)C(=O)SCc3oc(=O)oc3C)CC(=O)N(C(C)c3nc(cs3)/C=C\C=C\C1=O)[S+]2[O-]` (stereo not shown) [Compound 59], the MIC in test [1] (setting [11]) stood at 0.65 µg/mL (≈ 0.955 µM); in test [3] (setting [13]) it was 21 µg/mL (≈ 30.8 µM); in test [4] (setting [14]), 1.3 µg/mL (≈ 1.91 µM); in test [5] (setting [15]), 5.2 µg/mL (≈ 7.64 µM); in test [6] (setting [16]), 1.3 µg/mL (≈ 1.91 µM). In test [2] (setting [12]), the ILS at 2 mg/kg came to 47%.

On to `C/C1=C\C(O)C(=NOCc2ccccc2)/C=C/C=C\c2csc(n2)C(C)NC(=O)CC2(CC1)[S+]([O-])SC(=O)C2(C)O` (stereo not shown) [Compound 69], for which the MIC in test [1] (setting [11]) amounted to 0.028 µg/mL (≈ 0.0455 µM); in test [3] (setting [13]) it was 1.8 µg/mL (≈ 2.92 µM); in test [4] (setting [14]), 0.057 µg/mL (≈ 0.0926 µM); in test [5] (setting [15]), 0.23 µg/mL (≈ 0.373 µM); in test [6] (setting [16]) it was 0.028 µg/mL (≈ 0.0455 µM).

On to `CCOC(C)OC1/C=C(\C)CCC2(C(C)(O)C(=O)SCc3oc(=O)oc3C)CC(=O)N(C(C)c3nc(cs3)/C=C\C=C\C1=O)[S+]2[O-]` (stereo not shown) [Compound 87], for which the MIC in test [1] (setting [11]) came out at 0.11 µg/mL (≈ 0.158 µM); in test [3] (setting [13]), 6.8 µg/mL (≈ 9.79 µM); in test [4] (setting [14]), 0.85 µg/mL (≈ 1.22 µM); in test [5] (setting [15]) it was 1.7 µg/mL (≈ 2.45 µM); in test [6] (setting [16]) it was 54 µg/mL (≈ 77.7 µM).

As to `COC1(OC2/C=C(\C)CCC3(CC(=O)NC(C)c4nc(cs4)/C=C\C=C\C2=O)[S+]([O-])SC(=O)C3(C)O)CCOCC1` (stereo not shown) [Compound 90], the MIC in test [1] (setting [11]) came to 0.02 µg/mL (≈ 0.032 µM); in test [3] (setting [13]), 0.65 µg/mL (≈ 1.04 µM); in test [4] (setting [14]), 0.041 µg/mL (≈ 0.0656 µM); in test [5] (setting [15]), 0.16 µg/mL (≈ 0.256 µM); in test [6] (setting [16]), 0.041 µg/mL (≈ 0.0656 µM).
